We go through 62 compounds from a melting point compilation (Tetko et al.; mined from patent text by program, amines drawn as free bases though some values may be those of a salt).

The structures appear in SMILES notation. Bounds are passed on as bounds.

On to `C#Cc1ccc2c(C(=O)c3ccc(OCCN4CCCCC4)cc3)c(-c3ccc(O)cc3)sc2c1`, for which the melting point (commonly the temperature, or range, at which the solid turns liquid) lay in the range of 97 to 100 °C.

`CC1CCCN1c1cc(F)cc(C(=O)Nc2ccc(OCCN3CCOCC3)c3ccccc23)c1` (configuration not stated) came in with a melting point of 108 to 111 °C.

Regarding `O=C(O)c1sc(Cl)nc1C(F)(F)F`, the melting point was in the range of 131 to 132 °C.

`COc1cc(-c2cnc3[nH]cc(C(=O)O)c3n2)cc(OC)c1OC` registered a melting point of 238 °C.

Turning to `O=C(O)c1cccc(CC2COc3ccc(OCc4ccccc4)cc3C2)c1` (single isomer, unassigned; (+)), the melting point was 128 to 130 °C.

For `CS(=O)c1ccc(-c2coc3ccc(-c4nnc(N)o4)cc23)cc1Cl` (configuration not stated), the melting point lay in the range of 266 to 267 °C.

Compound `Cc1c(NC(=O)c2ccc(-c3ccccc3)c(F)c2)ccc2cc(CN3CCCCC3)cnc12` displayed a melting point of 138 to 139 °C.

`CN1C(=O)CC[C@]2(C)c3ccc(-c4ccc(F)cc4F)cc3CC[C@@H]12` displayed a melting point of 108 to 112 °C.

Take `CC(C)NS(=O)(=O)c1cc(Br)cc(Br)c1`: the melting point lay within 105 to 107 °C.

The compound `CCCc1c(OCc2ccc(C(=O)O)cc2[N+](=O)[O-])ccc(C(C)=O)c1O` displayed a melting point of 226 to 228 °C.

For the compound `CNC(=O)n1nc(Oc2ccc([N+](=O)[O-])cc2C(F)(F)F)c(Cl)c1C`, the melting point lay in the range of 157 to 158 °C.

In turn, `CC(C)N1CC(C(=O)c2c[nH]c(Cc3ccc(F)cc3)n2)=C(O)C1=O` registered a melting point of 220 °C.

As for `CCOC(=O)C1=CC2(CCC1S(=O)(=O)Nc1ccc(F)cc1Cl)OCCCO2` (configuration not stated), the melting point was 120 to 121 °C.

`O=C(Nc1ccc(C(=O)O)cc1)OCc1cn(-c2cc3cc(C(=O)O)c(=O)[nH]c3cc2C(F)(F)F)cn1`: the melting point fell in the range of 218 to 220 °C.

For the compound `COCCOCc1c(CN(C)CC(O)c2ccccn2)sc2c(=O)c(C(=O)NCc3ccc(Cl)cc3)cn(C)c12` (configuration not stated), the melting point was 150 to 152 °C.

Take `CC1(C)Oc2ccc(C#N)cc2[C@@H](NC(=O)Nc2cccc(-c3nnn[nH]3)c2)[C@@H]1O`: the melting point fell in the range of 204 to 208 °C.

`Cc1nn(C)cc1C(=O)NC1=C(c2ccc(Cl)cc2)CCC1` registered a melting point of 103 to 105 °C.

The compound `COc1ccc2c(c1)SCCC2=O` displayed a melting point of 49 to 51 °C.

`Cc1c(C)c2c(c(C)c1OC=O)SC(CCCI)O2` (configuration not stated) gave a melting point of 91 to 93 °C.

`CC(C)(C)c1ccc(C(=O)Nc2cn3nc(NC4CCCC4)ccc3n2)cc1` yielded a melting point of 272 to 273 °C.

For the compound `O=C1c2ccccc2S(=O)(=O)N1CCCOc1ccccc1`, the melting point lay in the range of 83 to 86 °C.

`COc1cc(N)c(Cl)cc1Cn1nc(-c2ccc(C(F)(F)F)cc2)[nH]c1=O`: the melting point was above 270 °C.

The compound `O=C(OC1CCc2c(c3ccccc3n2Cc2ccc(Cl)cc2)C1)c1ccccc1` (configuration not stated) came in with a melting point of 150 to 152 °C.

As to `Cc1cn(NC(=O)c2ccccc2C(=O)O)c2ccccc12`, the melting point lay within 191 to 193 °C.

For the compound `NCc1ccccc1C1CCN(c2nc3c(cc2F)c(=O)c(C(=O)O)cn3C2CC2)C1` (configuration not stated), the melting point was 226 to 228 °C.

Turning to `Cc1cc(CCC(=O)OC(C)(C)C)nc(-c2nc(=O)c3ccccc3s2)c1`, the melting point was in the range of 168 to 169 °C.

The compound `Nc1nc2c(Cc3ccsc3)c[nH]c2c(=O)[nH]1` gave a melting point of 222 to 224 °C.

`CCCCC(=NCC(=O)OCC)c1cc(Cl)ccc1N`: the melting point lay in the range of 96 to 97 °C.

Take `CC(=O)OCCNc1ccc(Cl)cc1C(=O)c1ccccc1F`: the melting point was 48 to 55 °C.

In the case of `CC(C)NC(=S)N1CCc2c(ncn2C)C1`, the melting point is 200 °C.

Regarding `CCN(CC)CCN1C(=O)c2ccc(NC(C)=O)cc2Oc2cc(C(F)(F)F)ccc21`, the melting point fell in the range of 75 to 85 °C.

The compound `CN(C)c1c(C(N)=O)cnc2c(NC(=O)c3c(Cl)cccc3Cl)cccc12` yielded a melting point of 222 to 223 °C.

Compound `CNc1nc(N2CCN(Cc3ccccc3)CC2)ncc1CCO` came in with a melting point of 119 to 120 °C.

Compound `CCOC(=O)c1cnc(NN)nc1-c1ccccc1` had a melting point of 74 to 75 °C.

As to `CCOC(=O)c1cc2c(Br)c(Br)oc2nc1C(=O)OCC`, the melting point lay in the range of 96 to 98 °C.

`NCC1CCN(c2nc3ccccc3[nH]2)CC1` had a melting point of 136 to 138 °C.

In turn, `Cc1ncc(C#N)c(Nc2cccc3[nH]ccc23)c1I` had a melting point of 192 to 194 °C.

With `C=CCc1cc(C(=O)OC)ccc1OCCCCCOc1ccc2c(=O)cc(C(=O)OC)oc2c1CCC`, the melting point lay in the range of 87 to 88 °C.

In turn, `COc1ccc(-c2cc(=O)cc(N3CCOCC3)o2)cc1` displayed a melting point of 220 °C.

As for `CN1CNC(=S)N(c2ccc(F)cc2)C1`, the melting point lay in the range of 173 to 175 °C.

`CCC(CC)n1nnc2c(Nc3c(C)cc(C)cc3C)nc(C)cc21` gave a melting point of 140 to 142 °C.

Turning to `N#CCc1c(Br)csc1Br`, the melting point was 75.5 to 77 °C.

For `COc1ccc(-c2nc(C(O)(C(F)(F)F)C(F)(F)F)[nH]c2-c2ccc(OC)cc2)cc1`, the melting point was in the range of 144 to 146 °C.

`O=C1Cc2cc(C(=O)N3CCN(CCC(=O)c4ccccc4)CC3)ccc2N1` had a melting point of 208 to 210 °C.

Compound `CN(C)C=Nc1c(Cl)cc(NCc2ccc(N(C)C)cc2F)cc1Cl` displayed a melting point of 118 to 120 °C.

Compound `COc1ccc(C(Sc2c(N)ccc3ccccc23)C(O)C(=O)O)cc1` (configuration not stated) came in with a melting point of 143 to 145 °C.

`N#Cc1ncn2c1[C@@H]1CCCN1C(=O)c1sccc1-2`: the melting point lay within 249 to 251 °C.

Regarding `Cn1cncc1C(O)(c1ccc(Cl)cc1)c1ccc2c(c1)c(-c1cccc(Cl)c1)cc(=O)n2C` (configuration not stated), the melting point is 234 °C.

Compound `CCOC(=O)C1=C(C)NC(CSC(=O)CCC2CCCCC2)=C(C(=O)OCC)C1c1cccc([N+](=O)[O-])c1` (configuration not stated) showed a melting point of 109 to 112 °C.

The compound `CCCCC(=N)NC(=O)Nc1ccc(C)cc1` came in with a melting point of 159 to 160 °C.

As for `Cc1c(NC(=O)c2ccc(-c3ccc4c(c3)OCO4)cc2)ccc2cc(CN3CCCC3)cnc12`, the melting point was 171 to 172 °C.

Regarding `O=C(CCCCCl)c1cc2c(c([N+](=O)[O-])c1)OCC2`, the melting point lay within 91 to 92 °C.

On to `CC(C)CC1(C(CCN2C(=O)c3ccccc3C2=O)C(=O)NO)CCN(CCc2ccccc2)C1=O` (configuration not stated), for which the melting point lay in the range of 102 to 105 °C.

`Cc1ccc(-c2nc3ccccc3o2)cc1F` yielded a melting point of 121 to 122 °C.

`Cc1cc(-c2cnn3c(C(F)(F)F)cc(-c4ccc(C(F)(F)F)c(F)c4)nc23)ccn1` displayed a melting point of 250 °C.

As to `O=C(Nc1cc2nc(-c3ccc(C(=O)C4CCCCC4)cc3)[nH]c2cn1)C1CCCCC1`, the melting point is 235 °C.

As to `O=C(COc1cc(C(=O)O)c(O)c2ccccc12)Nc1ccccc1`, the melting point lay within 165 to 166 °C.

In turn, `CC1(C)NC(=O)CN1C(=O)CN` had a melting point of 145 to 148 °C.

In turn, `CC(C)(C)NC(=O)CN1C(=O)[C@@H](CNC(=O)Nc2cccc(Cl)c2)C[C@H](c2ccccc2)c2ccccc21` returned a melting point of 156 to 170 °C.

On to `CN1CCCC1CNC(=O)c1cc(S(N)(=O)=O)cc2c1OCCO2` (configuration not stated), for which the melting point is 187 to 188 °C.

Take `O=C(O)[C@H]1C[C@H](NCc2ccccc2)c2c(Cl)cc(Cl)cc2N1` (relative stereo): the melting point was 112 to 114 °C.

With `CCOC(=O)CNc1ccc(NS(C)(=O)=O)cc1`, the melting point fell in the range of 135 to 138 °C.
